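Step 1: Grow cells in 96-well plates. Step 2: Expose to compound for 48 hours at 5 concentrations. Step 3: Interpolate endpoints linearly; if unreached, use highest concentration. The concentration for 50% growth inhibition is given as GI50. TGI is the concentration that stops growth completely.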
Legend:
Assay in all cases: NCI tumour cell line growth inhibition, 48 h
A549 NSCLC = system: A549 NSCLC
SK-OV-3 ovarian = system: SK-OV-3 ovarian
HOP-62 NSCLC = system: HOP-62 NSCLC
COLO 205 colon = system: COLO 205 colon
HCT-116 colon = system: HCT-116 colon
SNB-19 CNS = system: SNB-19 CNS
ACHN renal = system: ACHN renal
DU-145 prostate = system: DU-145 prostate
HT29 colon = system: HT29 colon
CAKI-1 renal = system: CAKI-1 renal

Structure (SMILES) | GI50 (A549 NSCLC) | TGI (A549 NSCLC) | GI50 (SK-OV-3 ovarian) | TGI (SK-OV-3 ovarian) | GI50 (HOP-62 NSCLC) | TGI (HOP-62 NSCLC) | GI50 (COLO 205 colon) | TGI (COLO 205 colon) | GI50 (HCT-116 colon) | TGI (HCT-116 colon) | GI50 (SNB-19 CNS) | TGI (SNB-19 CNS) | GI50 (ACHN renal) | TGI (ACHN renal) | GI50 (DU-145 prostate) | TGI (DU-145 prostate) | GI50 (HT29 colon) | TGI (HT29 colon) | GI50 (CAKI-1 renal) | TGI (CAKI-1 renal)
S=C(Nc1ccc(-c2nc3ccccc3s2)cc1)Nc1ccc(-c2nc3ccccc3s2)cc1 | 22.4 µM | 78.5 µM | 58.8 µM | > 100 µM | 37.5 µM | > 100 µM | 27.4 µM | > 100 µM | 16.6 µM | 33.9 µM | 43 µM | > 100 µM | 17.1 µM | 41 µM | 19.1 µM | 62.5 µM | 20.7 µM | 55.9 µM | 13.5 µM | 48.1 µM
COc1ccc(N=c2nc3sc4cc(Cl)ccc4n3c(N)c2C#N)cc1 | 15.4 µM | > 100 µM | 5.9 µM | > 100 µM | 4.84 µM | > 100 µM | 2.39 µM | 6.47 µM | 6.5 µM | > 100 µM | 20.7 µM | > 100 µM | 8.66 µM | > 100 µM | 35.8 µM | > 100 µM | 1.31 µM | > 100 µM | 8.05 µM | 78.3 µM
CCN(CC)c1ccc(/C=N/N=C(N)N)cc1 | 4.99 µM | > 100 µM | 3.47 µM | 14 µM | 4.65 µM | 21.3 µM | 1.79 µM | 3.51 µM | 4.85 µM | 18.5 µM | 3.57 µM | 23.8 µM | 12.8 µM | 64.8 µM | 4.3 µM | 28.2 µM | 3.24 µM | 10.8 µM | 6.73 µM | > 100 µM
NC(=S)c1cccc(C2Nc3ccccc3O2)c1 (stereo not given) |  | > 100 µM |  | > 100 µM |  | > 100 µM |  | > 100 µM |  | > 100 µM |  | > 100 µM |  | > 100 µM |  | > 100 µM |  | > 100 µM |  | > 100 µM
COc1ccc(C(=O)c2ccccc2)c(O)c1 | > 100 µM | > 100 µM | > 100 µM | > 100 µM | > 100 µM | > 100 µM | > 100 µM | > 100 µM | 50.7 µM | > 100 µM | > 100 µM | > 100 µM | > 100 µM | > 100 µM | 80 µM | > 100 µM | 43.8 µM | > 100 µM | 67.4 µM | > 100 µM
COc1ccc2c(c1)[n+](=O)c(/C=C/C(=O)c1cc(OC)c(OC)c(OC)c1)c(C)n2[O-] | 21.5 µM | > 100 µM | 23.9 µM | 92.8 µM | 19.4 µM | 47 µM | 1.65 µM | 11.3 µM | 3.23 µM | 14.2 µM | 29.7 µM | > 100 µM | 5.66 µM | 23.6 µM | 2.1 µM | 13.4 µM | 4.35 µM | 50.9 µM | 5.31 µM | > 100 µM
O=C1C=C(NCCc2ccccc2)c2ccccc2C1=O |  | 3.79 µM |  | 27 µM |  | 4.89 µM |  | 3.6 µM |  | 18 µM |  | 9.29 µM |  | 12.2 µM |  | 3.13 µM |  | 7.27 µM |  | 21.8 µM
O=S1(=O)CCC2=CC(C(F)(F)F)=CC(C(F)(F)F)=CN21 |  | 9.45 µM |  | 12.2 µM |  | 4.88 µM |  | 1.34 µM |  | 0.712 µM |  | 6.08 µM |  | 1.11 µM |  | 5.46 µM |  | 9.38 µM |  | 2.03 µM
COc1ccc(C2=NNC(c3sc(Cl)nc3Cl)C2)cc1 (stereo not given) | 29.8 µM | > 100 µM | 13.2 µM | 51.4 µM | 28.4 µM | > 100 µM | 2.17 µM | 4.4 µM | 3.39 µM | 14.9 µM | 20.8 µM | 68.6 µM | 4.58 µM | 20.6 µM | 7.38 µM | 20.4 µM | 5.12 µM | 18.6 µM | 11.8 µM | 39.4 µM
